Drawing on ChEMBL document CHEMBL3785050, “Synthesis, biological evaluation and molecular docking studies of 2-piperazin-1-yl-quinazolines as platelet aggregation inhibitors and ligands of integrin αIIbβ3” (Bioorg Med Chem Lett, 2016), this text covers IC50 for 16 molecules.

A short description of experiment [1]: Antiplatelet activity in human platelet rich plasma assessed as inhibition of ADP-induced platelet aggregation by Born's method. The class given is functional.
The target of experiment [2] is Integrin alpha-IIb/beta-3 (Homo sapiens, UniProt P05106+P08514). Kind of experiment: Inhibition of FITC-labelled fibrinogen binding to integrin alpha2b beta3 receptor in human platelet cells. The format is cell-based.
Integrin alpha-IIb/beta-3, sequence (P05106 27-788 limits assumed): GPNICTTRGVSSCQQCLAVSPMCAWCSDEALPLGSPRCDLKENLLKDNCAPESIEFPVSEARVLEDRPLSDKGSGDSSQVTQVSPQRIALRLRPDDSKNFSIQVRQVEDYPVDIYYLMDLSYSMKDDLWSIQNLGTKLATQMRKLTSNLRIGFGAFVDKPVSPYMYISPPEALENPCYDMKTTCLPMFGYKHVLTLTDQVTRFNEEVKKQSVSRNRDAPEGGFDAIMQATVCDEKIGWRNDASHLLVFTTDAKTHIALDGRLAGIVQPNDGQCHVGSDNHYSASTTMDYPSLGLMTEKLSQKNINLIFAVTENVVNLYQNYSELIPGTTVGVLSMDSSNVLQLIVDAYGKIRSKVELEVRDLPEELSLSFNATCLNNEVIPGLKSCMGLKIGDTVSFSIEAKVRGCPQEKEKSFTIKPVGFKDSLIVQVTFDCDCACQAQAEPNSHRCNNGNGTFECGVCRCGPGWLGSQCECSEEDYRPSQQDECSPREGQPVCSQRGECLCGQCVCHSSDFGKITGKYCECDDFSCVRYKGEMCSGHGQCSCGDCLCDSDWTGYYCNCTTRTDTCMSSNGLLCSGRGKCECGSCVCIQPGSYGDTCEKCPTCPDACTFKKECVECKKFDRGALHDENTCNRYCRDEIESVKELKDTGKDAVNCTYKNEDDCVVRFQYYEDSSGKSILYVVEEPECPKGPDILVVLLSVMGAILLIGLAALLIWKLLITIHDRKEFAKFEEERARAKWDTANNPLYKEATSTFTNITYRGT
Integrin alpha-IIb/beta-3, sequence (P08514 32-887 limits assumed): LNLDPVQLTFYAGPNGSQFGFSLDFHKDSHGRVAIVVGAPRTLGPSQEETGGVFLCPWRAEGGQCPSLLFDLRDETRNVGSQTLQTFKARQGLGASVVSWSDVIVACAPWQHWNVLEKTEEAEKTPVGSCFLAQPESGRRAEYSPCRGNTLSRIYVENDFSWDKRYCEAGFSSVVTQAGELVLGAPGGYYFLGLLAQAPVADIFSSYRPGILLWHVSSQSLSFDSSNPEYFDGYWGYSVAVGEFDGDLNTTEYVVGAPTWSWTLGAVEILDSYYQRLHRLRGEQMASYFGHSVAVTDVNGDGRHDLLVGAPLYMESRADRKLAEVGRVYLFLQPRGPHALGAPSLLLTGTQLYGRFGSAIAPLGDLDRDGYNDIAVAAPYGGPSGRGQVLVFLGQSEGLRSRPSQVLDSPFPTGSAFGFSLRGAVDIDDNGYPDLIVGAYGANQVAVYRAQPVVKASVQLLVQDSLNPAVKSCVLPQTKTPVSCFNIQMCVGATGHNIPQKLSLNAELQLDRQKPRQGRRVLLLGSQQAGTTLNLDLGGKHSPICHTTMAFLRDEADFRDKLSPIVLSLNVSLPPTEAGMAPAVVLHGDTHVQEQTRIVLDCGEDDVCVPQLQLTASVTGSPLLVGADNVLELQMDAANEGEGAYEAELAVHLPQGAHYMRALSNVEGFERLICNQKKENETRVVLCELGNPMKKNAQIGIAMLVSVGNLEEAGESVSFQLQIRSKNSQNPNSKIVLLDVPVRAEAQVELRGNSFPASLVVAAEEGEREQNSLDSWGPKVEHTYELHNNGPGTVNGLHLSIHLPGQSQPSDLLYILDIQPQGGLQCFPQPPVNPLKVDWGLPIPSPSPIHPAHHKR
Integrin alpha-IIb/beta-3, sequence (P08514 891-1039 limits assumed): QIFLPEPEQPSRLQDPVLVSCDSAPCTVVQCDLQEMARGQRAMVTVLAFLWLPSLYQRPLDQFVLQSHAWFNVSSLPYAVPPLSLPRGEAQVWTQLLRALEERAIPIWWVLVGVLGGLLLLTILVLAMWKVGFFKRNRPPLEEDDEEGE

What is called IC50 is the point on the concentration scale where inhibition reaches its midpoint.

For the molecule `NCCCC(=O)Nc1ccc2nc(N3CCNCC3)nc(-c3ccccc3)c2c1`, in experiment [1], the 50% inhibitory concentration (IC50) is 49 nM.
For the molecule `CCC(=O)Nc1ccc2nc(N3CCNCC3)[nH]c(=O)c2c1`, the IC50 in experiment [1] is 170 nM; in experiment [2] it was 55 nM.
As for `NCCCCCC(=O)Nc1ccc2nc(N3CCNCC3)[nH]c(=O)c2c1`, the IC50 in experiment [1] turned out to be 1300 nM.
Take `O=C(Nc1ccc2nc(N3CCNCC3)[nH]c(=O)c2c1)c1ccc(N2CCNCC2)cc1`: the IC50 came out at 1300 nM in experiment [1] and 20 nM in experiment [2].
For `NC[C@H](NC(=O)OCc1ccccc1)C(=O)Nc1ccc2nc(N3CCNCC3)[nH]c(=O)c2c1`, the IC50 came out at 19 nM in experiment [1] and 1.53 nM in experiment [2].
As for `NCc1ccc(C(=O)Nc2ccc3nc(N4CCNCC4)[nH]c(=O)c3c2)cc1`, the half-maximal inhibitory concentration (IC50) in experiment [1] stood at 1900 nM.
Consider `CC(C)COC(=O)N[C@@H](CN)C(=O)Nc1ccc2nc(N3CCNCC3)[nH]c(=O)c2c1`, for which the IC50 in experiment [1] worked out at 40 nM; in experiment [2], 1.8 nM.
For the molecule `NCCC(=O)Nc1ccc2nc(N3CCNCC3)nc(-c3ccccc3)c2c1`, the IC50 in experiment [1] is 570 nM.
As for `NCCCCCC(=O)Nc1ccc2nc(N3CCNCC3)nc(-c3ccccc3)c2c1`, the IC50 in experiment [1] stood at 58000 nM.
As to `CCOC(=O)N[C@@H](CN)C(=O)Nc1ccc2nc(N3CCNCC3)[nH]c(=O)c2c1`, the IC50 in experiment [1] was found to be 60 nM.
The same measure, in the same setting: in the case of `NCCCCC(=O)Nc1ccc2nc(N3CCNCC3)nc(-c3ccccc3)c2c1` it was 48000 nM.
Turning to `O=C(Nc1ccc2nc(N3CCNCC3)[nH]c(=O)c2c1)c1ccc(C2CCNCC2)cc1`, the IC50 in experiment [1] was 570 nM.
Consider `NCCCCC(=O)Nc1ccc2nc(N3CCNCC3)[nH]c(=O)c2c1`, for which the IC50 in experiment [1] came to 1400 nM.
As to `CCC(=O)Nc1ccc2nc(N3CCNCC3)nc(-c3ccccc3)c2c1`, in experiment [1], the IC50 turned out to be 720 nM.
For `NCC[C@H](NC(=O)OCc1ccccc1)C(=O)Nc1ccc2nc(N3CCNCC3)[nH]c(=O)c2c1`, the figures for the IC50 in experiment [1] and in experiment [2] were 10 nM and 1.57 nM, respectively.
Regarding `CCCCS(=O)(=O)N[C@@H](Cc1ccc(OCCCCC2CCNCC2)cc1)C(=O)O` [TIROFIBAN], in experiment [1], the IC50 came to 30 nM.
